Read-outs that look alike come from different tables or passages of the source. Starred links: 1 amine or outer side, 2 acyl side, 3 side chain; linkers in the order of their positions; H or OH if unused. Non-standard residues stand in square brackets, D forms with d. Groups on a side chain read outwards from the residue. No end group written: not given here. *: point of attachment. C18 diacid = O=C(O)CCCCCCCCCCCCCCCCC(=O)*; γGlu = O=C(O)[C@H](CCC(=O)[*:2])N[*:1]; NMeY = CN[C@@H](Cc1ccc(O)cc1)C(=O)O; αMe4Pal = C[C@](N)(Cc1ccncc1)C(=O)O; αMeY = C[C@](N)(Cc1ccc(O)cc1)C(=O)O; 4Pal = N[C@@H](Cc1ccncc1)C(=O)O; αMeL = CC(C)C[C@](C)(N)C(=O)O; αMeS = C[C@](N)(CO)C(=O)O; Orn = NCCC[C@H](N)C(=O)O; Aib = CC(C)(N)C(=O)O
Experiments:
Type in all cases: cell-based
human GLP1-R = human GLP1-R (Homo sapiens, UniProt P43220); assay: GLP1-R internalization assay in HEK293 cells; conditions: for Internalization % TOP: normalized to maximum concentration of GLP-1 (100%)
hGIPR [1] = target: T1, hGIPR (Homo sapiens, UniProt P48546); assay: Functional cAMP activation in the presence of 0.1% casein (no HSA);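 further: intracellular cAMP rise after 30 min at 37 °C read by HTRF against a standard curve, scaled between buffer alone (0%) and top control ligand concentration (100%), four-parameter fit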
T1 sequence (P48546 22-466): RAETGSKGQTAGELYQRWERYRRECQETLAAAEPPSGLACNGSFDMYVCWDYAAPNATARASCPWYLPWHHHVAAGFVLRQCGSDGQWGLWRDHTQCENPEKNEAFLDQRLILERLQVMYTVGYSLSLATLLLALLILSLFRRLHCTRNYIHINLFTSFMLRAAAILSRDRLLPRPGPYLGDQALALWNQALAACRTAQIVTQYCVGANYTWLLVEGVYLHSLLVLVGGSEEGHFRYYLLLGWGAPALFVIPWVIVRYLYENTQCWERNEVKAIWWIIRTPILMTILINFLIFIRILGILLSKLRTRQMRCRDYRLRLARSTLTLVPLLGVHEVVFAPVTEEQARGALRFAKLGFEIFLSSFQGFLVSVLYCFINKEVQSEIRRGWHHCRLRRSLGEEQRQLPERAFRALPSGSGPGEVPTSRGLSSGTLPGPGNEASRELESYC

hGLP-1R [2] = target: T2, hGLP-1R (Homo sapiens, UniProt P43220); assay: Functional cAMP activity in the presence of 1% HSA
hGcgR = hGcgR (Homo sapiens, UniProt P47871); assay: Functional cAMP activation in the presence of 0.1% casein (no HSA);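 further: intracellular cAMP rise after 30 min at 37 °C, read by HTRF against a cAMP standard curve, scaled from buffer only (0%) to maximal control ligand response (100%)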
human GcgR = human GcgR (Homo sapiens, UniProt P47871); assay: Functional cAMP activity in the presence of 1% HSA
hGIPR [3] = target: T1, hGIPR; assay: Functional cAMP activity in the presence of 1% HSA
hGLP-1R [4] = target: T2, hGLP-1R; assay: Functional cAMP activation in the presence of 0.1% casein (no HSA);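 further: intracellular cAMP rise after 30 min at 37 °C read by HTRF, normalized between buffer only (0%) and maximal control ligand (100%), four-parameter variable-slope fit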
[5] = HEK293 cells expressing SNAP-GLP-1R, read-out: GLP1R Internalization EC50
[6] = in the presence of 0.1% casein (no HSA), geometric mean, read-out: Relative cAMP EC50, hGIPR
[7] = read-out: cAMP Rel EC50, hGLP-1R
[8] = in the presence of 0.1% casein (no HSA), geometric mean, read-out: Relative cAMP EC50, hGcgR
[9] = in the presence of 0.1% casein (no HSA), geometric mean, read-out: Relative cAMP EC50, hGLP-1R

Sequence of hGcgR (P47871 26-477): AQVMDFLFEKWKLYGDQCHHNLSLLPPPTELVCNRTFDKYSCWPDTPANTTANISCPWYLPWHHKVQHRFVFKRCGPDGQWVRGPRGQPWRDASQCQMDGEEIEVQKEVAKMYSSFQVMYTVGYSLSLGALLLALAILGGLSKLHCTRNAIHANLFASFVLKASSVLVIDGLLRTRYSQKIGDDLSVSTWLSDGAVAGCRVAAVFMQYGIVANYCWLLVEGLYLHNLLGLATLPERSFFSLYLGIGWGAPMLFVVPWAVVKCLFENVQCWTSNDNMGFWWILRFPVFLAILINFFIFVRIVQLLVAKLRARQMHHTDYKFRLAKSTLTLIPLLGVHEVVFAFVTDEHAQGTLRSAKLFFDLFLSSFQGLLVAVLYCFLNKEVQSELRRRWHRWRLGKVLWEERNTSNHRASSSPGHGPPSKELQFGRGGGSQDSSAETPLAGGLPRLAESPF
Sequence of human GcgR (P47871 26-477): as above
T2 sequence (P43220 24-463): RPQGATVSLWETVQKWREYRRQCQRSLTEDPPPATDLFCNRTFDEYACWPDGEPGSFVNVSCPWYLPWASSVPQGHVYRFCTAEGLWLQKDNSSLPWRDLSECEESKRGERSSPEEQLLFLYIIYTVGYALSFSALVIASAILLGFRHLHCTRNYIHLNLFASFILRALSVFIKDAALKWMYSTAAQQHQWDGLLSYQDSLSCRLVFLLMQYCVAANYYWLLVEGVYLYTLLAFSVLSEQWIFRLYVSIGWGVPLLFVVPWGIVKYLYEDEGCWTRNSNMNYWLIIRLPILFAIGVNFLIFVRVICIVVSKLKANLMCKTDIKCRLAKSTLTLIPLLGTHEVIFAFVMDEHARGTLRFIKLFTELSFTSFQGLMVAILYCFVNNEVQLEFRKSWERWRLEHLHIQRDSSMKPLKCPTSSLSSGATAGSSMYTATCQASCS
Sequence of human GLP1-R (P43220 24-463): as above

Compound	EC50 (human GLP1-R; [5]) [nM]	Internalization % TOP (human GLP1-R) [%]	EC50 (hGIPR [1]; [6]) [nM]	EC50 (hGLP-1R [2]; [7]) [nM]	EC50 (hGcgR; [8]) [nM]	EC50 (human GcgR; read-out: cAMP Rel EC50, hGcgR) [nM]	EC50 (hGIPR [3]; read-out: cAMP Rel EC50, hGIPR) [nM]	EC50 (hGLP-1R [4]; [9]) [nM]	EC50 (human GLP1-R) [nM]	EC50 (hGIPR [1]) [nM]	EC50 (hGLP-1R [2]) [nM]	EC50 (hGcgR) [nM]	EC50 (human GcgR) [nM]	EC50 (hGIPR [3]) [nM]	EC50 (hGLP-1R [4]) [nM]
CC[C@H](C)[C@H](NC(=O)[C@H](Cc1ccccc1)NC(=O)[C@H](C)NC(=O)C(C)(C)NC(=O)[C@H](CCC(N)=O)NC(=O)[C@H](C)NC(=O)[C@H](CCCCNC(=O)COCCOCCNC(=O)CC[C@H](NC(=O)CCCCCCCCCCCCCCCCC(=O)O)C(=O)O)NC(=O)[C@H](CCCCN)NC(=O)[C@H](CC(=O)O)NC(=O)[C@H](CC(C)C)NC(=O)[C@](C)(CC(C)C)NC(=O)[C@H](CCCCN)NC(=O)[C@H](CO)NC(=O)[C@H](Cc1ccccc1)NC(=O)[C@H](CC(=O)O)NC(=O)[C@H](CO)NC(=O)[C@@H](NC(=O)[C@H](Cc1ccccc1)NC(=O)[C@@H](NC(=O)CNC(=O)[C@H](CCC(N)=O)NC(=O)C(C)(C)NC(=O)[C@@H](N)Cc1ccc(O)cc1)[C@@H](C)O)[C@@H](C)O)C(=O)N[C@@H](CCC(=O)O)C(=O)N[C@@H](Cc1ccc(O)cc1)C(=O)N[C@@H](CC(C)C)C(=O)N[C@@H](CC(C)C)C(=O)N[C@@H](C)C(=O)NCC(=O)NCC(=O)N1CCC[C@H]1C(=O)N[C@@H](CO)C(=O)N[C@@H](CO)C(=O)NCC(=O)N[C@@H](CCC(=O)O)C(=O)N1CCC[C@H]1C(=O)N1CCC[C@H]1C(=O)N1CCC[C@H]1C(=O)N[C@@H](CO)C(=O)N[C@@H](CCC(=O)O)C(=O)NCC(N)=O [Example 22]	41.9	64.7	0.246	592	5.42	532	81	2.94	–	–	–	–	–	–	–
CC[C@H](C)[C@H](NC(=O)[C@H](Cc1ccccc1)NC(=O)[C@H](C)NC(=O)C(C)(C)NC(=O)[C@H](CCC(N)=O)NC(=O)[C@H](C)NC(=O)[C@H](CCCCNC(=O)COCCOCCNC(=O)COCCOCCNC(=O)CC[C@H](NC(=O)CCCCCCCCCCCCCCCCCCC(=O)O)C(=O)O)NC(=O)[C@H](CCCCN)NC(=O)[C@H](CC(=O)O)NC(=O)[C@H](CC(C)C)NC(=O)[C@](C)(CC(C)C)NC(=O)[C@H](CCCCN)NC(=O)[C@H](CO)NC(=O)[C@H](Cc1ccccc1)NC(=O)[C@H](CC(=O)O)NC(=O)[C@H](CO)NC(=O)[C@@H](NC(=O)[C@H](Cc1ccccc1)NC(=O)[C@@H](NC(=O)CNC(=O)[C@H](CCC(N)=O)NC(=O)C(C)(C)NC(=O)[C@@H](N)Cc1ccc(O)cc1)[C@@H](C)O)[C@@H](C)O)C(=O)N[C@@H](CCC(=O)O)C(=O)N[C@@H](Cc1ccc(O)cc1)C(=O)N[C@@H](CC(C)C)C(=O)N[C@@H](CC(C)C)C(=O)N[C@@H](CCC(=O)O)C(=O)NC(C)(C)C(=O)NCC(=O)N1CCC[C@H]1C(=O)N[C@@H](CO)C(=O)N[C@@H](CO)C(=O)NCC(=O)N[C@@H](C)C(=O)N1CCC[C@H]1C(=O)N1CCC[C@H]1C(=O)N1CCC[C@H]1C(=O)NCC(=O)N[C@@H](CCC(=O)O)C(=O)NCC(N)=O [Example 55]	–	70.7	–	–	–	–	–	–	79.5	0.0856	479	5.2	960	27.8	1.96
CC[C@H](C)[C@H](NC(=O)[C@H](Cc1ccccc1)NC(=O)[C@H](C)NC(=O)C(C)(C)NC(=O)[C@H](CCC(N)=O)NC(=O)[C@H](C)NC(=O)[C@H](CCCCNC(=O)COCCOCCNC(=O)CC[C@H](NC(=O)CCCCCCCCCCCCCCCCC(=O)O)C(=O)O)NC(=O)[C@H](CCCCN)NC(=O)[C@H](CC(=O)O)NC(=O)[C@H](CC(C)C)NC(=O)[C@](C)(CC(C)C)NC(=O)[C@H](CCCN)NC(=O)[C@H](CO)NC(=O)[C@H](Cc1ccncc1)NC(=O)[C@H](CC(=O)O)NC(=O)[C@H](CO)NC(=O)[C@@H](NC(=O)[C@H](Cc1ccccc1)NC(=O)[C@@H](NC(=O)CNC(=O)[C@H](CCC(N)=O)NC(=O)C(C)(C)NC(=O)[C@@H](N)Cc1ccc(O)cc1)[C@@H](C)O)[C@@H](C)O)C(=O)N[C@@H](CCC(=O)O)C(=O)N[C@@H](Cc1ccc(O)cc1)C(=O)N[C@@H](CC(C)C)C(=O)N[C@@H](CC(C)C)C(=O)N[C@@H](C)C(=O)NCC(=O)NCC(=O)N1CCC[C@H]1C(=O)N[C@@H](CO)C(=O)N[C@@H](CO)C(=O)NCC(=O)N[C@@H](C)C(=O)N1CCC[C@H]1C(=O)N1CCC[C@H]1C(=O)N1CCC[C@H]1C(=O)N[C@@H](CO)C(=O)NCC(=O)N[C@@H](CCC(=O)O)C(N)=O [Example 112]	30.1	59.1	0.233	892	11	1810	–	5.77	–	–	–	–	–	–	–
CC[C@H](C)[C@H](NC(=O)[C@H](Cc1ccccc1)NC(=O)[C@H](C)NC(=O)C(C)(C)NC(=O)[C@H](CCC(N)=O)NC(=O)[C@H](C)NC(=O)[C@H](CCCCNC(=O)COCCOCCNC(=O)CC[C@H](NC(=O)CCCCCCCCCCCCCCCCC(=O)O)C(=O)O)NC(=O)[C@H](CCCCN)NC(=O)[C@H](CC(=O)O)NC(=O)[C@H](CC(C)C)NC(=O)[C@](C)(CC(C)C)NC(=O)[C@H](CCCN)NC(=O)[C@H](CO)NC(=O)[C@H](Cc1ccccc1)NC(=O)[C@H](CC(=O)O)NC(=O)[C@H](CO)NC(=O)[C@@H](NC(=O)[C@H](Cc1ccccc1)NC(=O)[C@@H](NC(=O)CNC(=O)[C@H](CCC(N)=O)NC(=O)C(C)(C)NC(=O)[C@@H](N)Cc1ccc(O)cc1)[C@@H](C)O)[C@@H](C)O)C(=O)N[C@@H](CCC(=O)O)C(=O)N[C@@H](Cc1ccc(O)cc1)C(=O)N[C@@H](CC(C)C)C(=O)N[C@@H](CC(C)C)C(=O)N[C@@H](CCC(=O)O)C(=O)N[C@H](C)C(=O)NCC(=O)N1CCC[C@H]1C(=O)N[C@@H](CO)C(=O)N[C@@H](CO)C(=O)NCC(=O)N[C@@H](C)C(=O)N1CCC[C@H]1C(=O)N1CCC[C@H]1C(=O)N1CCC[C@H]1C(=O)N[C@@H](CO)C(=O)NCC(=O)N[C@@H](CCC(=O)O)C(N)=O [Example 129]	22.5	40.6	0.134	284	2.01	510	24.3	1.87	–	–	–	–	–	–	–
CC[C@H](C)[C@H](NC(=O)[C@H](Cc1ccccc1)NC(=O)[C@H](C)NC(=O)C(C)(C)NC(=O)[C@H](CCC(N)=O)NC(=O)[C@H](C)NC(=O)[C@H](CCCCNC(=O)COCCOCCNC(=O)COCCOCCNC(=O)CC[C@H](NC(=O)CCCCCCCCCCCCCCCCC(=O)O)C(=O)O)NC(=O)[C@H](CCCCN)NC(=O)[C@H](CC(=O)O)NC(=O)[C@H](CC(C)C)NC(=O)[C@](C)(CC(C)C)NC(=O)[C@H](CCCN)NC(=O)[C@H](CO)NC(=O)[C@H](Cc1ccccc1)NC(=O)[C@H](CC(=O)O)NC(=O)[C@H](CO)NC(=O)[C@@H](NC(=O)[C@H](Cc1ccccc1)NC(=O)[C@@H](NC(=O)CNC(=O)[C@H](CCC(N)=O)NC(=O)C(C)(C)NC(=O)[C@@H](N)Cc1ccc(O)cc1)[C@@H](C)O)[C@@H](C)O)C(=O)N[C@@H](CCC(=O)O)C(=O)N[C@@H](Cc1ccc(O)cc1)C(=O)N[C@@H](CC(C)C)C(=O)N[C@@H](CC(C)C)C(=O)N[C@@H](CCC(=O)O)C(=O)NC(C)(C)C(=O)NCC(=O)N[C@@H](CCC(=O)O)C(=O)N[C@@H](CO)C(=O)N[C@@H](CO)C(=O)NCC(=O)N[C@@H](C)C(=O)N1CCC[C@H]1C(=O)N1CCC[C@H]1C(=O)N1CCC[C@H]1C(=O)N[C@@H](CO)C(=O)NCC(=O)N[C@@H](CCC(=O)O)C(N)=O [Example 185]	144	43.7	0.123	502	3.5	504	21.1	5.46	–	–	–	–	–	–	–
[NMeY][Aib]QGTFTSD[4Pal][αMeS]I[αMeL]LD[Orn]K([dE-γGlu-C18 diacid])AQ[αMe4Pal]QFIQ[αMeY]LIE[Aib]GPSSGAPPPSGGGE-NH2 [Example 1135]	–	–	0.0126	63.2	1.76	142	0.864	0.746	–	–	–	–	–	–	–
